Test results taken from PubChem BioAssay (NCI).
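Five concentrations, 48 hours, 96-well plates. TGI: concentration producing complete growth inhibition.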

How the values were obtained:
Assay in all cases: growth of human tumour cells (NCI), 48 h
IGROV1 ovarian = system: IGROV1 ovarian
ACHN renal = system: ACHN renal
SF-295 CNS = system: SF-295 CNS
OVCAR-5 ovarian = system: OVCAR-5 ovarian
RXF 393 renal = system: RXF 393 renal
UO-31 renal = system: UO-31 renal
HCT-15 colon = system: HCT-15 colon
786-0 renal = system: 786-0 renal
OVCAR-8 ovarian = system: OVCAR-8 ovarian
K-562 leukemia = system: K-562 leukemia
SK-MEL-28 melanoma = system: SK-MEL-28 melanoma
TK-10 renal = system: TK-10 renal
KM12 colon = system: KM12 colon
LOX IMVI melanoma = system: LOX IMVI melanoma
SN12C renal = system: SN12C renal
A498 renal = system: A498 renal
SF-268 CNS = system: SF-268 CNS
SF-539 CNS = system: SF-539 CNS
SNB-19 CNS = system: SNB-19 CNS
OVCAR-4 ovarian = system: OVCAR-4 ovarian
HL-60(TB) leukemia = system: HL-60(TB) leukemia
A549 NSCLC = system: A549 NSCLC
M14 melanoma = system: M14 melanoma
NCI-H460 lung = system: NCI-H460 lung
UACC-62 melanoma = system: UACC-62 melanoma
SK-MEL-5 melanoma = system: SK-MEL-5 melanoma
NCI-H23 lung = system: NCI-H23 lung
LXFL 529 NSCLC = system: LXFL 529 NSCLC
KM20L2 colon = system: KM20L2 colon
COLO 205 colon = system: COLO 205 colon
HOP-18 NSCLC = system: HOP-18 NSCLC
NCI-H522 lung = system: NCI-H522 lung
SNB-78 CNS = system: SNB-78 CNS
SR leukemia = system: SR leukemia
OVCAR-3 ovarian = system: OVCAR-3 ovarian
UACC-257 melanoma = system: UACC-257 melanoma
CCRF-CEM leukemia = system: CCRF-CEM leukemia
HT29 colon = system: HT29 colon
RXF-631 renal = system: RXF-631 renal
HOP-92 NSCLC = system: HOP-92 NSCLC
EKVX NSCLC = system: EKVX NSCLC
DMS 114 small cell lung = system: DMS 114 small cell lung
HCC-2998 colon = system: HCC-2998 colon
DLD-1 colon = system: DLD-1 colon
HCT-116 colon = system: HCT-116 colon
SK-OV-3 ovarian = system: SK-OV-3 ovarian
NCI-H226 lung = system: NCI-H226 lung
XF 498 CNS = system: XF 498 CNS
M19-MEL melanoma = system: M19-MEL melanoma
U251 CNS = system: U251 CNS
SW-620 colon = system: SW-620 colon
HOP-62 NSCLC = system: HOP-62 NSCLC
MALME-3M melanoma = system: MALME-3M melanoma
CAKI-1 renal = system: CAKI-1 renal
SNB-75 CNS = system: SNB-75 CNS
DMS 273 small cell lung = system: DMS 273 small cell lung
MOLT-4 leukemia = system: MOLT-4 leukemia
SK-MEL-2 melanoma = system: SK-MEL-2 melanoma
RPMI-8226 leukemia = system: RPMI-8226 leukemia

Question: Which results are given for `N#Cc1cc([N+](=O)[O-])ccc1NC(=O)C(=O)C(C(=O)/C=C/c1ccccc1)C1OC(=O)c2ccccc21` (stereo not drawn)?
Answer: TGI (IGROV1 ovarian): > 100 µM; TGI (ACHN renal): > 100 µM; TGI (SF-295 CNS): > 100 µM; TGI (OVCAR-5 ovarian): > 100 µM; TGI (RXF 393 renal): > 100 µM; TGI (UO-31 renal): > 100 µM; TGI (HCT-15 colon): > 100 µM; TGI (786-0 renal): > 100 µM; TGI (OVCAR-8 ovarian): > 100 µM; TGI (K-562 leukemia): > 100 µM; TGI (SK-MEL-28 melanoma): > 100 µM; TGI (TK-10 renal): > 100 µM; TGI (KM12 colon): > 100 µM; TGI (LOX IMVI melanoma): > 100 µM; TGI (SN12C renal): > 100 µM; TGI (A498 renal): > 100 µM; TGI (SF-268 CNS): > 100 µM; TGI (SF-539 CNS): > 100 µM; TGI (SNB-19 CNS): > 100 µM; TGI (OVCAR-4 ovarian): > 100 µM; TGI (HL-60(TB) leukemia): > 100 µM; TGI (A549 NSCLC): > 100 µM; TGI (M14 melanoma): > 100 µM; TGI (NCI-H460 lung): > 100 µM; TGI (UACC-62 melanoma): > 100 µM; TGI (SK-MEL-5 melanoma): > 100 µM; TGI (NCI-H23 lung): > 100 µM; TGI (LXFL 529 NSCLC): > 100 µM; TGI (KM20L2 colon): > 100 µM; TGI (COLO 205 colon): > 100 µM; TGI (HOP-18 NSCLC): > 100 µM; TGI (NCI-H522 lung): > 100 µM; TGI (SNB-78 CNS): > 100 µM; TGI (SR leukemia): > 100 µM; TGI (OVCAR-3 ovarian): > 100 µM; TGI (UACC-257 melanoma): > 100 µM; TGI (CCRF-CEM leukemia): > 100 µM; TGI (HT29 colon): > 100 µM; TGI (RXF-631 renal): > 100 µM; TGI (HOP-92 NSCLC): > 100 µM; TGI (EKVX NSCLC): > 100 µM; TGI (DMS 114 small cell lung): > 100 µM; TGI (HCC-2998 colon): > 100 µM; TGI (DLD-1 colon): > 100 µM; TGI (HCT-116 colon): > 100 µM; TGI (SK-OV-3 ovarian): > 100 µM; TGI (NCI-H226 lung): > 100 µM; TGI (XF 498 CNS): > 100 µM; TGI (M19-MEL melanoma): > 100 µM; TGI (U251 CNS): > 100 µM; TGI (SW-620 colon): > 100 µM; TGI (HOP-62 NSCLC): > 100 µM; TGI (MALME-3M melanoma): > 100 µM; TGI (CAKI-1 renal): > 100 µM; TGI (SNB-75 CNS): > 100 µM

Question: How did the TGI (IGROV1 ovarian) turn out when `COC(=O)C(Cl)=C1CC1` was run?
Answer: The TGI was > 100 µM.

Question: And the TGI (ACHN renal)?
Answer: The TGI was 49.2 µM.

Question: And the TGI (SF-295 CNS)?
Answer: Its TGI is > 100 µM.

Question: What about the TGI (OVCAR-5 ovarian) of the same compound?
Answer: Its TGI is > 100 µM.

Question: And the TGI (RXF 393 renal)?
Answer: Its TGI is 35.8 µM.

Question: What about the TGI (UO-31 renal) of the same compound?
Answer: The TGI was 89.9 µM.

Question: And the TGI (HCT-15 colon)?
Answer: The TGI was 57.6 µM.

Question: What about the TGI (786-0 renal) of the same compound?
Answer: The TGI was 65.4 µM.

Question: And the TGI (OVCAR-8 ovarian)?
Answer: The TGI was 97.9 µM.

Question: And the TGI (K-562 leukemia)?
Answer: The TGI was 60.5 µM.

Question: And the TGI (SK-MEL-28 melanoma)?
Answer: Its TGI is 54.3 µM.

Question: What about the TGI (TK-10 renal) of the same compound?
Answer: Its TGI is > 100 µM.

Question: And the TGI (DMS 273 small cell lung)?
Answer: The TGI was > 100 µM.

Question: And the TGI (MOLT-4 leukemia)?
Answer: The TGI was 53.4 µM.

Question: And the TGI (KM12 colon)?
Answer: The TGI was > 100 µM.

Question: What about the TGI (LOX IMVI melanoma) of the same compound?
Answer: Its TGI is 59.6 µM.

Question: What about the TGI (SN12C renal) of the same compound?
Answer: Its TGI is > 100 µM.

Question: And the TGI (A498 renal)?
Answer: Its TGI is > 100 µM.

Question: And the TGI (SF-268 CNS)?
Answer: The TGI was > 100 µM.

Question: What about the TGI (SF-539 CNS) of the same compound?
Answer: The TGI was 69.1 µM.

Question: What about the TGI (SNB-19 CNS) of the same compound?
Answer: The TGI was > 100 µM.

Question: And the TGI (OVCAR-4 ovarian)?
Answer: Its TGI is > 100 µM.

Question: And the TGI (HL-60(TB) leukemia)?
Answer: Its TGI is 51.3 µM.

Question: And the TGI (A549 NSCLC)?
Answer: Its TGI is > 100 µM.

Question: And the TGI (M14 melanoma)?
Answer: Its TGI is 30.5 µM.

Question: And the TGI (NCI-H460 lung)?
Answer: Its TGI is > 100 µM.

Question: What about the TGI (UACC-62 melanoma) of the same compound?
Answer: Its TGI is > 100 µM.

Question: And the TGI (SK-MEL-5 melanoma)?
Answer: The TGI was 84.9 µM.

Question: What about the TGI (NCI-H23 lung) of the same compound?
Answer: The TGI was > 100 µM.

Question: And the TGI (LXFL 529 NSCLC)?
Answer: Its TGI is 29.5 µM.

Question: And the TGI (KM20L2 colon)?
Answer: The TGI was > 100 µM.

Question: And the TGI (COLO 205 colon)?
Answer: The TGI was 38.3 µM.

Question: What about the TGI (NCI-H522 lung) of the same compound?
Answer: Its TGI is 33.9 µM.

Question: What about the TGI (SNB-78 CNS) of the same compound?
Answer: The TGI was > 100 µM.

Question: And the TGI (OVCAR-3 ovarian)?
Answer: The TGI was 65 µM.

Question: What about the TGI (UACC-257 melanoma) of the same compound?
Answer: The TGI was > 100 µM.

Question: What about the TGI (CCRF-CEM leukemia) of the same compound?
Answer: Its TGI is 42.2 µM.

Question: And the TGI (HT29 colon)?
Answer: The TGI was > 100 µM.

Question: What about the TGI (HOP-92 NSCLC) of the same compound?
Answer: The TGI was 29.1 µM.

Question: And the TGI (DMS 114 small cell lung)?
Answer: The TGI was 95.6 µM.

Question: And the TGI (HCC-2998 colon)?
Answer: Its TGI is > 100 µM.

Question: What about the TGI (DLD-1 colon) of the same compound?
Answer: Its TGI is 64.1 µM.

Question: What about the TGI (SK-OV-3 ovarian) of the same compound?
Answer: Its TGI is > 100 µM.

Question: And the TGI (NCI-H226 lung)?
Answer: The TGI was > 100 µM.

Question: And the TGI (XF 498 CNS)?
Answer: Its TGI is 88.7 µM.

Question: And the TGI (M19-MEL melanoma)?
Answer: The TGI was > 100 µM.

Question: What about the TGI (SK-MEL-2 melanoma) of the same compound?
Answer: The TGI was > 100 µM.

Question: And the TGI (SW-620 colon)?
Answer: Its TGI is 37.1 µM.

Question: What about the TGI (HOP-62 NSCLC) of the same compound?
Answer: The TGI was > 100 µM.

Question: And the TGI (RPMI-8226 leukemia)?
Answer: Its TGI is 60.4 µM.

Question: And the TGI (MALME-3M melanoma)?
Answer: The TGI was 46.5 µM.

Question: What about the TGI (CAKI-1 renal) of the same compound?
Answer: The TGI was 32.6 µM.

Question: What about the TGI (SNB-75 CNS) of the same compound?
Answer: Its TGI is > 100 µM.
